From ChEMBL document CHEMBL4270553, “Synthesis and anticancer activity of new dihydropyrimidinone derivatives” (Eur J Med Chem, 2018)

Key:
A549 [1] = test: Induction of apoptosis in human A549 cells assessed as early apoptotic cells at 2 uM after 24 hrs by Annexin V-FITC/propidium iodide staining-based flow cytometric analysis (reference value: 0.52%); assay type: functional
A549 [2] = test: Cell cycle arrest in human A549 cells assessed as accumulation of cells at G0/G1 phase at 2 uM after 24 hrs by propidium iodide staining-based flow cytometric analysis (reference value: 67.62%); assay type: functional
A549 [3] = test: Cell cycle arrest in human A549 cells assessed as accumulation of cells at G2/M phase at 2 uM after 24 hrs by propidium iodide staining-based flow cytometric analysis (reference value: 6.2%); assay type: functional
A549 [4] = test: Induction of apoptosis in human A549 cells assessed as caspase9 expression at 7.4 uM after 2 hrs by ELISA (reference value: 0.1726 ng/ml); assay type: functional
A549 [5] = test: Induction of apoptosis in human A549 cells assessed as late apoptotic cells at 2 uM after 24 hrs by Annexin V-FITC/propidium iodide staining-based flow cytometric analysis (reference value: 0.33%); assay type: functional
A549 [6] = test: Induction of apoptosis in human A549 cells assessed as viable cells at 2 uM after 24 hrs by Annexin V-FITC/propidium iodide staining-based flow cytometric analysis (reference value: 97.5%); assay type: functional; conditions: A549, 24 h, read-out: Activity
A549 [7] = test: Cell cycle arrest in human A549 cells assessed as accumulation of cells at S phase at 2 uM after 24 hrs by propidium iodide staining-based flow cytometric analysis (reference value: 25.26%); assay type: functional
A549 [8] = test: Cell cycle arrest in human A549 cells assessed as accumulation of cells at pre-G1 phase at 2 uM after […] by propidium iodide staining-based flow cytometric analysis (reference value: 0.92%); assay type: functional
A549 [9] = test: Induction of apoptosis in human A549 cells 24 hrs by propidium iodide staining-based flow cytometric analysis (reference value: 0.92%); assay type: functional
A549 [10] = test: Induction of apoptosis in human A549 cells assessed as necrotic cells at 2 uM after 24 hrs by Annexin V-FITC/propidium iodide staining-based flow cytometric analysis (reference value: 0.07%); assay type: functional
A549 [11] = test: Induction of apoptosis in human A549 cells assessed as caspase3 expression at 7.4 uM after 2 hrs by ELISA (reference value: 53.45 ng/ml); assay type: functional
MCF7 = test: Cytotoxicity against human MCF7 cells after 24 hrs by MTT assay; assay type: functional, cell-based; conditions: MCF7, 24 h
HCT-116 = test: cells; conditions: Homo sapiens, HCT-116, 24 h
Description: Cytotoxicity against human HCT116 cells after 24 hrs by MTT assay

PC-3 = test: cells; conditions: Homo sapiens, PC-3, 24 h
Description: Cytotoxicity against human PC3 cells after 24 hrs by MTT assay

BJ = test: Cytotoxicity against human BJ cells; assay type: cell-based
[12] = Cytotoxicity against human WPE1-NA22 cells; assay type: cell-based
MRC5 = test: Cytotoxicity against human MRC5 cells; assay type: cell-based

O=c1[nH]cc(F)c(=O)[nH]1 [FLUOROURACIL]
Activity (A549 [1]): 6.37% | Activity (A549 [2]): 47.36% | Activity (A549 [3]): 21.04% | Activity (A549 [4]): 16.84 ng/mL | Activity (A549 [5]): 6.59% | viability at 2 µM (A549 [6]): 82.7% | Activity (A549 [7]): 16.08% | Activity (A549 [8]): 15.52% | Activity (A549 [9]): 15.52% | Activity (A549 [10]): 2.52% | Activity (A549 [11]): 582.1 ng/mL

CCOC(=O)C1=C(CSC(=S)N2CCN(c3ccccc3OCC)CC2)N(C)C(=O)NC1c1ccccc1 (stereo not drawn)
IC50 (MCF7): 53.8 µM | IC50 (HCT-116): 67.6 µM | IC50 (PC-3): 72.3 µM

CCOC(=O)C1=C(CSc2nnc(-c3ccc(C)cc3)o2)N(C)C(=O)NC1c1ccccc1 (stereo not drawn)
IC50 (MCF7): 25.3 µM | IC50 (HCT-116): 36 µM | IC50 (PC-3): 61.8 µM

COc1cccc2c1C(=O)c1c(O)c3c(c(O)c1C2=O)C[C@@](O)(C(=O)CO)C[C@@H]3O[C@H]1C[C@H](N)[C@H](O)[C@H](C)O1 [DOXORUBICIN]
IC50 (BJ): 17.6 µM | IC50 [12]: 18.2 µM | IC50 (MRC5): 14.8 µM

CCOC(=O)C1=C(CSc2nc3cc(C)ccc3[nH]2)N(C)C(=O)NC1c1ccccc1 (stereo not drawn)
IC50 (MCF7): 19.4 µM | IC50 (HCT-116): 9.5 µM | IC50 (PC-3): 22.3 µM
